Structures can show the parent of a compound that is named as a salt. Where two headings read alike, the source gives them in different places.
How the values were obtained:
ATXN2-luc [1] = test: NCATS qHTS (LOPAC pilot, primary and confirmation): ATXN2-luc in S2 cells, 1536-well, Steady-Glo; format: cell-based, human; settings: for AC50 / Efficacy / Inf Activity / Log AC50: LOPAC library screening optimization; for Curve Class: LOPAC library (1,280 compounds) screening optimization, signed sub-classes (-1.1, -2.2, -3 ...); for Efficacy / Inf Activity: curve-fit parameter
Procedure: We next performed a pilot screen assay to optimize the 1536-well qHTS using S2 cells. […] Cytotoxicity was determined using a multiplexed viability assay (CellTiter-Fluor, a fluorescence-based viability assay using Gly-Phe-7-amino-4-trifluoromethylcoumarin substrate).
CellTiter-Fluor was used to determine compound effect on cell viability, and Steady-Glo was used to measure luciferase in a multiplexed assay.
The primary assay was conducted at the NCATS NIH Chemical Genomics Center laboratory. About 4 μl of S2 cell suspension in phenol red–free DMEM was dispensed into wells of 1536-well assay plates. […] Next, SteadyGlo luciferase substrate detection reagent (3 μl) was added to each well and incubated for an additional 5 min at room temperature. Luminescence was then measured on the ViewLux imager equipped with clear filters using a 2 s exposure. All screening operations were performed on a fully integrated robotic system (Kalypsys) containing one RX-130 and two RX-90 anthropomorphic robotic arms (Stäubli). Vehicle-only plates, with DMSO being pin-transferred to columns 5 to 48, were inserted uniformly at the beginning and the end of each library in order to monitor and record any shifts in assay performance.

ATXN2-luc [2] = test: MSSR pilot screen: ATXN2-luc luciferase assay (Bright-Glo) in H2 cells, single 10 μM dose; format: cell-based, human; settings: H2 cells, single dose (title: 10 μM compound), overnight
[3] = Homo sapiens, logarithm of AC50 (negative values), read-out: Log AC50 (converted)
[4] = logarithm of AC50 (negative values)

SMILES | AC50 (ATXN2-luc [1]; [3]) [µM] | AC50 (ATXN2-luc [1]; Homo sapiens, read-out: AC50) [µM] | SD from mean (ATXN2-luc, Z-score) (ATXN2-luc [2]) [SD] | also measured
CC1CNCCN1[S+](=O)([O-])c1cccc2cnccc12 (centres unmarked) | 22.4 | 22.4 | – | –
Br.COc1cc(CC(C)N)c(OC)cc1Br (centres unmarked) | 15.8 | 15.8 | – | Curve Class (ATXN2-luc [1]): -2.4; Efficacy (ATXN2-luc [1]): -57.1187; Inf Activity (ATXN2-luc [1]): -63.2991
COc1cc(C[C@@H](C)N)c(OC)cc1Br.Cl | 39.8 | 39.8 | – | Efficacy (ATXN2-luc [1]): -71.0454; Inf Activity (ATXN2-luc [1]): -73.0357
COc1cc(C[C@H](C)N)c(OC)cc1Br.Cl | 28.2 | 28.2 | – | Efficacy (ATXN2-luc [1]): -52.627; Inf Activity (ATXN2-luc [1]): -55.207
CC(C)NCC(O)COc1cccc2ccccc12 (racemic) [(±)-Propranolol hydrochloride] | 14.1 | 14.1 | – | Curve Class (ATXN2-luc [1]): -2.2; Log AC50 (ATXN2-luc [1]; [4]): -4.6; AC50 (ATXN2-luc [1]; read-out: AC50): 25.1 µM
Br.CC1C2Cc3ccc(O)cc3C1(C)CCN2CCc1ccccc1 (single isomer, unassigned; (+)) [(+)-Phenazocine hydrobromide] | 17.8 | 17.8 | – | Efficacy (ATXN2-luc [1]): -59.8542; Inf Activity (ATXN2-luc [1]): -62.9667
Br.C[C@H]1C2Cc3ccc(O)cc3[C@]1(C)CCN2CCc1ccccc1 (single isomer, unassigned; (-)) [(-)-Phenazocine hydrobromide] | 35.5 | 35.5 | – | Efficacy (ATXN2-luc [1]): -71.0942; Inf Activity (ATXN2-luc [1]): -66.3244
O=C1C=CC(=O)c2ccccc21 [4-NAPHTHOQUINONE] | – | – | -3.613 | –
CC[C@H](O)C(C[C@H](C)N(C)C)(c1ccccc1)c1ccccc1.Cl [(+)-alpha-Methadol hydrochloride] | 35.5 | 35.5 | – | Efficacy (ATXN2-luc [1]): -65.8804; Inf Activity (ATXN2-luc [1]): -66.2609
CC[C@@H](O)C(C[C@@H](C)N(C)C)(c1ccccc1)c1ccccc1.Cl [(-)-alpha-Methadol hydrochloride] | 31.6 | 31.6 | – | Efficacy (ATXN2-luc [1]): -53.231; Inf Activity (ATXN2-luc [1]): -52.9785
CC(C)NC[C@H](O)COc1cccc2ccccc12 [(S)-Propranolol hydrochloride] | 17.8 | 17.8 | – | Curve Class (ATXN2-luc [1]): -2.2; Log AC50 (ATXN2-luc [1]; [4]): -4.5; AC50 (ATXN2-luc [1]; read-out: AC50): 31.6 µM
Nc1ncnc2c1c(I)cn2[C@@H]1C[C@H](N)[C@@H](O)[C@H]1O [A-134974 dihydrochloride hydrate] | 10 | 10 | – | Curve Class (ATXN2-luc [1]): -2.1; Log AC50 (ATXN2-luc [1]; [4]): -4.9; AC50 (ATXN2-luc [1]; read-out: AC50): 12.6 µM
C[n+]1c2cc(N)ccc2cc2ccc(N)cc21.[Cl-] [ACRIFLAVINIUM HYDROCHLORIDE] | – | – | -4.148 | –
CCCCCCc1ccc(O)cc1O.Nc1c2ccccc2nc2ccccc12 [ACRISORCIN] | – | – | -3.600 | –
CC[C@@]1(O)C[C@H](O[C@H]2C[C@H](N(C)C)[C@H](O)[C@H](C)O2)c2c(cc3c(c2O)C(=O)c2c(O)cccc2C3=O)[C@H]1C(=O)OC [AKLAVINE HYDROCHLORIDE] | – | – | -3.741 | –
Nc1c2ccccc2nc2ccccc12 [AMINACRINE] | – | – | -4.103 | –
N=c1ccn2c(n1)O[C@H]1[C@H](O)[C@@H](CO)O[C@H]12 [ANCITABINE HYDROCHLORIDE] | – | – | -3.031 | –
CC(=O)O[C@@H]1C[C@@]2(C)[C@H](c3ccoc3)C[C@H]3O[C@]32[C@]2(C)C(=O)C(O)=C3C(C)(C)C(=O)C=C[C@]3(C)[C@@H]12 [ANTHOTHECOL] | – | – | -3.020 | –
Clc1ccc2c(c1)C(N1CCNCC1)=Nc1ccccc1O2 [Amoxapine] | 11.2 | 11.2 | – | Curve Class (ATXN2-luc [1]): -2.2; Efficacy (ATXN2-luc [1]): -60.2873; Inf Activity (ATXN2-luc [1]): -56.594
COc1ccc(C[C@H]2NC[C@H](O)[C@H]2OC(C)=O)cc1 [Anisomycin] | – | – | -4.015 | –
O=C(Cc1ccc(Cl)c(Cl)c1)N1CCCCC1CN1CCCC1 (centres unmarked) [BRL 52537 hydrochloride] | 35.5 | 35.5 | – | Efficacy (ATXN2-luc [1]): -82.8908; Inf Activity (ATXN2-luc [1]): -85.8462
OC(CCN1CCCCC1)(c1ccccc1)C1CC2C=CC1C2 (centres unmarked) [Biperiden hydrochloride] | 17.8 | 17.8 | – | Curve Class (ATXN2-luc [1]): -2.2; Log AC50 (ATXN2-luc [1]; [4]): -4.6; AC50 (ATXN2-luc [1]; read-out: AC50): 25.1 µM
CC(C)/N=c1\cc2n(-c3ccc(Cl)cc3)c3ccccc3nc-2cc1Nc1ccc(Cl)cc1 [CLOFAZIMINE] | – | – | -2.792 | –
CCc1cccc(N(C)C(N)=Nc2cccc3ccccc23)c1 [CNS-1102] | 12.6 | 12.6 | – | Curve Class (ATXN2-luc [1]): -2.2; Log AC50 (ATXN2-luc [1]; [4]): -4.7; AC50 (ATXN2-luc [1]; read-out: AC50): 20 µM

SMILES | AC50 (ATXN2-luc [1]; [3]) [µM] | AC50 (ATXN2-luc [1]; Homo sapiens, read-out: AC50) [µM] | SD from mean (ATXN2-luc, Z-score) (ATXN2-luc [2]) [SD] | also measured
CO[C@H]1C=C[C@@]23c4cc5c(cc4CN(C[C@@H]2O)[C@H]3C1)OCO5 [CRINAMINE] | – | – | -3.651 | –
Nc1ccn([C@@H]2O[C@H](CO)[C@@H](O)[C@@H]2O)c(=O)n1 [CYTARABINE] | – | – | -3.681 | –
COc1cccc2c1C(=O)c1c(O)c3c(c(O)c1C2=O)C[C@@](O)(C(C)=O)C[C@@H]3O[C@H]1C[C@H](N)[C@H](O)[C@H](C)O1 [Daunorubicin hydrochloride] | – | – | -4.155 | –
Cc1c2ccncc2c(C)c2c1[nH]c1ccccc12 [Ellipticine] | – | – | -3.485 | –
CC(C)=CCC[C@]1(C)C=Cc2c(O)c3c(c(CC=C(C)C)c2O1)O[C@]12C(=C[C@@H]4C[C@H]1C(C)(C)O[C@@]2(C/C=C(/C)C(=O)O)C4=O)C3=O [GAMBOGIC ACID] | – | – | -4.841 | –
COC(=O)C[C@](O)(CCCC(C)(C)O)C(=O)O[C@@H]1C(OC)=C[C@]23CCCN2CCc2cc4c(cc2[C@H]13)OCO4 [HOMOHARRINGTONINE] | – | – | -3.117 | –
CC(=O)[C@]1(O)Cc2c(O)c3c(c(O)c2[C@@H](O[C@H]2C[C@H](N)[C@H](O)[C@H](C)O2)C1)C(=O)c1ccccc1C3=O [IDARUBICIN HCl] | – | – | -2.944 | –
CC(=O)[C@]1(O)Cc2c(O)c3c(c(O)c2[C@@H](O[C@H]2C[C@H](N)[C@H](O)[C@H](C)O2)C1)C(=O)c1ccccc1C3=O [IDARUBICIN] | – | – | -2.719 | –
CC(C)[N+](C)(CCC(C(N)=O)(c1ccccc1)c1ccccc1)C(C)C [ISOPROPAMIDE IODIDE] | – | – | -4.073 | –
O[C@H]1[C@H]2c3cc4c(cc3CN3CCC(=C[C@@H]1O)[C@H]23)OCO4 [Lycorine hydrochloride] | – | – | -2.968 | –
Cl.Cl.O=C1c2c(O)ccc(O)c2C(=O)c2c(NCCNCCO)ccc(NCCNCCO)c21 [MITOXANTHRONE HYDROCHLORIDE] | – | – | -4.333 | –
O=C1c2c(O)ccc(O)c2C(=O)c2c(NCCNCCO)ccc(NCCNCCO)c21 [Mitoxantrone dihydrochloride] | – | – | -3.666 | –
O=C(Nc1ccc([N+](=O)[O-])cc1Cl)c1cc(Cl)ccc1O [Niclosamide] | – | – | -4.393 | –
N=C1C=CC(=C(c2ccc(N)cc2)c2ccc(N)cc2)C=C1 [PARAROSANILINE PAMOATE] | – | – | -2.740 | –
O=C1C=C2C(=CCOC2O)O1 (centres unmarked) [PATULIN] | – | – | -3.651 | –
COC(=O)[C@]1(C)CC[C@]2(C)CC[C@]3(C)C4=CC=C5C(=CC(=O)C(O)=C5C)[C@]4(C)CC[C@@]3(C)[C@@H]2C1 [PRISTIMERIN] | – | – | -3.883 | –
COc1ccc(C[C@H](N)C(=O)N[C@H]2[C@@H](O)[C@H](n3cnc4c(N(C)C)ncnc43)O[C@@H]2CO)cc1 [PUROMYCIN HYDROCHLORIDE] | – | – | -3.716 | –
COc1cc(/C=C/C(=O)N2CCC=CC2=O)cc(OC)c1OC [Piperlongumine] | – | – | -2.973 | –
COc1ccc(C[C@H](N)C(=O)N[C@H]2[C@@H](O)[C@H](n3cnc4c(N(C)C)ncnc43)O[C@@H]2CO)cc1 [Puromycin dihydrochloride] | – | – | -4.723 | –
CCN(CC)CCCC(C)Nc1c2ccc(Cl)cc2nc2ccc(OC)cc12 (centres unmarked) [Quinacrine dihydrochloride dihydrate] | – | – | -3.270 | –
CC[C@@]1(O)C[C@H](O)c2c(cc3c(c2O)C(=O)c2c(O)ccc(O)c2C3=O)[C@H]1C(=O)OC [RUTILANTINONE] | – | – | -2.722 | –
COc1cc([C@@H]2c3cc4c(cc3[C@@H](O[C@@H]3O[C@@H]5CO[C@@H](c6cccs6)O[C@H]5[C@H](O)[C@H]3O)[C@H]3COC(=O)[C@H]23)OCO4)cc(OC)c1O [TENIPOSIDE] | – | – | -2.832 | –
C[CH2][Hg][S]c1ccccc1C(=O)[O-].[Na+] [THIMEROSAL] | – | – | -5.645 | –
C[C@H]1CC[C@]2(NC1)O[C@H]1C[C@H]3[C@@H]4CC[C@H]5C[C@@H](O[C@@H]6O[C@H](CO)[C@H](O[C@@H]7O[C@H](CO)[C@@H](O)[C@H](O[C@@H]8OC[C@@H](O)[C@H](O)[C@H]8O)[C@H]7O[C@@H]7O[C@H](CO)[C@@H](O)[C@H](O)[C@H]7O)[C@H](O)[C@H]6O)CC[C@]5(C)[C@H]4CC[C@]3(C)[C@H]1[C@@H]2C [TOMATINE] | – | – | -4.999 | –

— article PMC9356275, “A quantitative high-throughput screen identifies compounds that lower expression of the SCA2-and ALS-associated gene ATXN2” (The Journal of Biological Chemistry, 2022)
